Results taken from ChEMBL document CHEMBL1126897, “Tyrphostins. 3. Structure-activity relationship studies of alpha-substituted benzylidenemalononitrile 5-S-aryltyrphostins” (J Med Chem, 1993).

Tests used:
[1] = biological target: T1, Epidermal growth factor receptor (Homo sapiens, UniProt P00533); experiment: Inhibitory concentration against EGF receptor by polyGAT phosphorylation
[2] = biological target: T1, Epidermal growth factor receptor; experiment: Inhibitory concentration against EGF receptor by autophosphorylation
[3] = biological target: T1, Epidermal growth factor receptor; experiment: Inhibition of polyGAT phosphorylation by EGF receptor

T1 sequence (P00533 whole entry): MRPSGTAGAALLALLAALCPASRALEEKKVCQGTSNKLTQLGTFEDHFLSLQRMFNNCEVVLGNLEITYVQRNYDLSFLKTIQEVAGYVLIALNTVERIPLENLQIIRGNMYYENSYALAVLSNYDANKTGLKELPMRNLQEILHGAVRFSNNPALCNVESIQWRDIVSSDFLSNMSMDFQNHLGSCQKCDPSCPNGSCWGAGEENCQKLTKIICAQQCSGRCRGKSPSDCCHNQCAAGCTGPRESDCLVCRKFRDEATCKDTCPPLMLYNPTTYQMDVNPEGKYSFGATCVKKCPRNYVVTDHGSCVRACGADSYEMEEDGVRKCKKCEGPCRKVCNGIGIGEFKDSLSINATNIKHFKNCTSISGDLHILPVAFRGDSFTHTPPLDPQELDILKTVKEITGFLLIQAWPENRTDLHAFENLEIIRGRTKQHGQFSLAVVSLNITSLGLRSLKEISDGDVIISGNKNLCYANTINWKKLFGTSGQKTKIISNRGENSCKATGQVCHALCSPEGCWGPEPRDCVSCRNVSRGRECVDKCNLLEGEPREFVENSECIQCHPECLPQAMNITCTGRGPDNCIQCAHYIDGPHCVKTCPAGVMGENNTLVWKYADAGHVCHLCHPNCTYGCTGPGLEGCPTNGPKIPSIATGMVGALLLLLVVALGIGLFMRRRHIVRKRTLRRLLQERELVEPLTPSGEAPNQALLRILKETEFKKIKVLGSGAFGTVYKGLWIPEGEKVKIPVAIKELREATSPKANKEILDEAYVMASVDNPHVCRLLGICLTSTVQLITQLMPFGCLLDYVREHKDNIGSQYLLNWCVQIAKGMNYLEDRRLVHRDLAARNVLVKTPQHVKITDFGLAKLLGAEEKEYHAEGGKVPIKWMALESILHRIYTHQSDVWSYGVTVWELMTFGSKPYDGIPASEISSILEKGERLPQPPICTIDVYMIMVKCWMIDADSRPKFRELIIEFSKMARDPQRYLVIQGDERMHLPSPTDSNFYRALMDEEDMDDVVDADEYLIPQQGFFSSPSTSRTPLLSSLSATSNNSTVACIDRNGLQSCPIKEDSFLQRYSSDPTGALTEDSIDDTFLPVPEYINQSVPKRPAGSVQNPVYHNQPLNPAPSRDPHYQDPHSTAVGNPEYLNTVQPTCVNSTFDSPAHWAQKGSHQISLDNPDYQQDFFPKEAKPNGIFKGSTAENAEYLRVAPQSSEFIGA

Row | IC50 [1] [µM] | IC50 [2] [µM] | IC50 [3] [µM] | SMILES
1 | 4.4 | > 83 |  | COc1cc(/C=C(\C#N)C(N)=O)cc(CSc2nc3cc(Cl)ccc3s2)c1O
2 | 5.6 | 22 |  | COc1cc(/C=C(\C#N)C(N)=O)cc(CSc2ccccc2NC(C)=O)c1O
3 | 0.75 | 4.5 |  | COc1cc(/C=C(\C#N)C(=O)c2ccc(O)c(O)c2)cc(CSCc2ccccc2)c1O
4 | 2.9 | 0.4 |  | COc1cc(/C=C(\C#N)C(N)=O)cc(CSc2ccccc2)c1O
5 |  | > 167 | > 100 | CCOc1ccc2nc(SCc3cc(/C=C(\C#N)C(N)=O)cc(OC)c3O)sc2c1
6 | 12.5 | 5.3 |  | COc1cc(/C=C(\C#N)C(N)=O)cc(CSc2nc3ccccc3o2)c1O
7 | 36 | 8 |  | COc1cc(C=C(C#N)C#N)cc(CSc2ccccc2C(=O)O)c1O
8 | 14.8 | 16 |  | COc1cc(/C=C(\C#N)C(N)=O)cc(CSCc2ccc(Cl)cc2)c1O
9 | 37 | 0.71 |  | COc1cc(/C=C(\C#N)C(N)=O)cc(CSc2ccccc2C(=O)O)c1O
10 | 96 | 54 |  | COc1cc(C=C(C#N)C#N)cc(CSCC(=O)O)c1O
11 | 370 | 6.7 |  | COc1cc(C=C(C#N)C#N)cc(CSc2ccccc2)c1O
12 | 2.5 | 1 |  | COc1cc(/C=C(\C#N)C(N)=O)cc(CSCc2ccccc2Cl)c1O
13 | 6.6 | 1.7 |  | COc1cc(/C=C(\C#N)C(N)=O)cc(CSc2ccc3ccccc3c2)c1O
14 | 75 | 14.5 |  | COc1cc(/C=C(\C#N)C(N)=O)cc(CSc2nc3ccccc3[nH]2)c1O
15 | 6.5 | 3.2 |  | N#C/C(=C\c1cc(O)c(O)c(CSc2nc3ccccc3s2)c1)C(N)=O
16 | 85 | 23 |  | COc1cc(C=C(C#N)C#N)cc(CS(=O)(=O)c2ccc(C)cc2)c1O
17 | 2.5 | 2.5 |  | COc1cc(/C=C(\C#N)C(N)=O)cc(CSc2ccc(O)cc2)c1O
18 |  |  | 125 | COc1cc(/C=C(\C#N)C(N)=O)cc(CSCCC(=O)O)c1O
19 | 0.94 | 0.64 |  | N#C/C(=C\c1cc(O)c(O)c(CSCc2ccccc2)c1)C(N)=O

Row | SMILES | IC50 [1] [µM] | IC50 [2] [µM] | IC50 [3] [µM]
20 | Cc1cc(C=C(C#N)C#N)cc(O)c1O | 5.6 | 62 | 
21 | COc1cc(/C=C(\C#N)C(N)=O)cc(CSc2ccccn2)c1O | 25 | 3.4 | 
22 | COc1cc(C=C(C#N)C#N)cc(C)c1O | 2600 | 87 | 
23 | COc1cc(/C=C(\C#N)C(N)=O)cc(CSCc2ccccc2)c1O | 1.95 | 0.9 | 
